Reference: article PMC5123075, “Structural and antitrypanosomal data of different carbasones of piperitone” (Data in Brief, 2016)

Legend:
[1] = tested on: Trypanosoma brucei brucei (Tbb); assay: in vitro antitrypanosomal activity (Alamar Blue method of Räz et al.); type: cell-based; details: for Selectivity index CHO/tbb: IC50 (CHO) / IC50 (Tbb); for Selectivity index WI38/tbb: IC50 (WI38) / IC50 (Tbb); for Selectivity index LC50/tbb: LC50 (A. salina) / IC50 (Tbb); for Antitrypanosomal activity, activity (verbal grade): Tbb; for Antitrypanosomal activity, activity (verbal grade) / IC50: in vitro; for IC50: Trypanosoma brucei, concentration providing 50% death of parasites, mean±SD of three experiments
Excerpt: (§1) The Antitrypanosomal activity, toxicity test, and cytotoxicity assay were done according to Räz et al., Sleet and Brendel and Stevigny et al., respectively.

[2] = toxicity test against Artemia salina Leach larvae (Sleet and Brendel); type: in vivo; details: Artemia salina Leach (larvae), in vivo; concentration providing 50% death of larvae; mean±SD of three experiments
Excerpt: as §1

[3] = tested on: Artemia salina (Leach) larvae; assay: as above; type: in vivo; details: larvae
Excerpt: as §1

[4] = cytotoxicity assay on WI38 cells (Stevigny et al.); type: cell-based, human; details: WI38 non-cancer fibroblast cells; human normal fibroblast cells; mean±SD of three experiments
Excerpt: as §1

[5] = tested on: human non cancer fibroblast cell line (WI38); assay: cytotoxicity assay on WI38 cells (Stevigny et al.); type: cell-based; details: for Selectivity index WI38/CHO: IC50 (WI38) / IC50 (CHO), selectivity between the two tested cell lines; for Cytotoxicity WI38, Activity (verbal grade): WI38 cells
Excerpt: as §1

[6] = cytotoxicity assay on CHO cells (Stevigny et al.); type: cell-based, Chinese Hamster; details: Chinese Hamster Ovary (CHO) cells; Chinese Hamster Ovary cells; mean±SD of three experiments
Excerpt: as §1

[7] = tested on: Chinese Hamster Ovary (CHO) cells; assay: cytotoxicity assay on CHO cells (Stevigny et al.); type: cell-based; details: CHO cells
Excerpt: as §1

With `CC1=C/C(=N\NC(N)=O)C(C(C)C)CC1` (stereo not drawn) [compound 1, piperitone semicarbazone] the “Selectivity index CHO/tbb” value [1] was 0.45, the “Selectivity index WI38/tbb” value [1] was 1.01 and the “Selectivity index LC50/tbb” value [1] was 0.78. For the same compound, the “Antitrypanosomal activity, activity (verbal grade)” value (“Antitrypanosomal activity, activity” below) [1] was “low”, the IC50 [1] was 478 ± 7.19 µM and the LC50 [2] was 373 ± 6.6 µM. The “Toxicity against A. salina Leach, Activity (verbal grade)” value (“Toxicity against A. salina Leach” for short) [3] was “Not toxic”, the IC50 [4] was 481 ± 6.69 µM and the “Selectivity index WI38/CHO” value [5] was 2.25. The “Cytotoxicity WI38, Activity (verbal grade)” value (“Cytotoxicity WI38, Activity” for short) [5] was “Not cytotoxic”, the IC50 [6] was 214 ± 7.56 µM and the “Cytotoxicity CHO, Activity (verbal grade)” value (from here on “Cytotoxicity CHO, Activity”) [7] was “Not toxic”.
In the case of `CC1=C/C(=N\NC(N)=S)C(C(C)C)CC1` (stereo not drawn) [compound 2, piperitone thiosemicarbazone], the “Selectivity index CHO/tbb” value [1] is reported as 0.28, the “Selectivity index WI38/tbb” value [1] is reported as 1.92 and the “Selectivity index LC50/tbb” value [1] is reported as 1.16. The “Antitrypanosomal activity, activity” value [1] was “moderate”, the IC50 [1] was 74.6 ± 4.44 µM and the LC50 [2] was 86.7 ± 2.33 µM. The “Toxicity against A. salina Leach” value [3] was “Not toxic”, the IC50 [4] was 143 ± 4.89 µM and the “Selectivity index WI38/CHO” value [5] was 6.78. The “Cytotoxicity WI38, Activity” value [5] was “Not cytotoxic”, the IC50 [6] was 21.2 ± 1.37 µM and the “Cytotoxicity CHO, Activity” value [7] was “Cytotoxic”.
For `CC1=C/C(=N\NC(=O)Nc2ccccc2)C(C(C)C)CC1` (stereo not drawn) [compound 3, piperitone 4-phenyl semicarbazone], the “Antitrypanosomal activity, activity” value [1] was “trypanocidal”, the IC50 [1] was 8.63 ± 0.81 µM and the LC50 [2] was 85.5 ± 2.28 µM. For the same compound, the “Toxicity against A. salina Leach” value [3] was “Not toxic”, the IC50 [4] was 81 ± 9.15 µM and the “Selectivity index WI38/CHO” value [5] was 1.23. For the same compound, the “Cytotoxicity WI38, Activity” value [5] was “Not cytotoxic”, the IC50 [6] was 65.9 ± 4.8 µM and the “Cytotoxicity CHO, Activity” value [7] was “Moderate”.
For `CC1=C/C(=N\NC(=S)Nc2ccccc2)C(C(C)C)CC1` (stereo not drawn) [compound 4, piperitone 4-phenyl thiosemicarbazone], the “Selectivity index CHO/tbb” value [1] was 6.00, the “Selectivity index WI38/tbb” value [1] was 12.30 and the “Selectivity index LC50/tbb” value [1] was 2.96. The “Antitrypanosomal activity, activity” value [1] was “trypanocidal”, the IC50 [1] was 10.9 ± 2.52 µM and the LC50 [2] was 32.2 ± 1.66 µM. For the same compound, the “Toxicity against A. salina Leach” value [3] was “Toxic”, the IC50 [4] was 134 ± 5.45 µM and the “Selectivity index WI38/CHO” value [5] was 2.05. The “Cytotoxicity WI38, Activity” value [5] was “Not cytotoxic”, the IC50 [6] was 65.3 ± 4.02 µM and the “Cytotoxicity CHO, Activity” value [7] was “Moderate”.
